In US20250114327A1, “COMPOSITION COMPRISING TETRACYCLIC COMPOUND” (CHUGAI SEIYAKU KABUSHIKI KAISHA, priority 2010, published 2025):
Counter-ions that a name gives are not always drawn.

Assays:
[1] = Small scale dissolution test in FaSSIF (Test example 2); settings: 37° C., paddle 50 rpm

SMILES	solubility of the Compound F6-20 hydrochloride salt crystal ([1]; 5 to 240 min, results in figures, stated in words)	initial solubility of the Compound F6-20 hydrochloride salt crystal ([1]; early phase, stated in words (FIG. 26))	Dissolved concentration after 10 min	Dissolved concentration after 240 min	solubility of the Compound F6-20 mesylate salt crystal ([1]; 5 to 240 min, versus Comparative example 3, stated in words)
CCc1cc2c(cc1N1CCC(N3CCOCC3)CC1)C(C)(C)c1[nH]c3cc(C#N)ccc3c1C2=O [9-ethyl-6,6-dimethyl-8-(4-morpholin-4-yl-piperidin-1-yl)-11-oxo-6,11-dihydro-5H-benzo[b]carbazole-3-carbonitrile monohydrochloride salt]	improved by addition of SLS and poly(sodium 4-styrene sulfonate)	improved by addition of polyoxyethylene (105) polyoxypropylene (5) glycol			
CC1(C)c2cc(N3CCN(C4COC4)CC3)c(Br)cc2C(=O)c2c1[nH]c1cc(C#N)ccc21 [Comparative example 5, 9-Bromo-6,6-dimethyl-8-(4-oxetan-3-yl-piperazin-1-yl)-11-oxo-6,11-dihydro-5H-benzo[b]carbazole-3-carbonitrile]			4.4 ± 0.4 µg/mL	4.8 ± 0.3 µg/mL	
CCc1cc2c(cc1N1CCC(N3CCOCC3)CC1)C(C)(C)c1[nH]c3cc(C#N)ccc3c1C2=O [Compound F6-20 mesylate salt, 9-Ethyl-6,6-dimethyl-8-(4-morpholin-4-yl-piperidin-1-yl)-11-oxo-6,11-dihydro-5H-benzo[b]carbazole-3-carbonitrile]					improved in accordance with the additive amount of sodium lauryl sulfate
CCc1cc2c(cc1N1CCN(C3COC3)CC1)C(C)(C)c1[nH]c3cc(C#N)ccc3c1C2=O [Comparative example 7, 9-Ethyl-6,6-dimethyl-8-(4-oxetan-3-yl-piperazin-1-yl)-11-oxo-6,11-dihydro-5H-benzo[b]carbazole-3-carbonitrile]			0.4 ± 0.2 µg/mL	0.4 ± 0.4 µg/mL	
CC1(C)c2cc(C3CCN(C4COC4)CC3)ccc2C(=O)c2c1[nH]c1cc(C#N)ccc21 [Comparative example 4, 6,6-Dimethyl-8-(1-oxetan-3-yl-piperidin-4-yl)-11-oxo-6,11-dihydro-5H-benzo[b]carbazole-3-carbonitrile]			8.3 ± 1.5 µg/mL	3.8 ± 2.6 µg/mL	
CC1(C)c2cc(N3CCN(C4CC4)CC3)c(Br)cc2C(=O)c2c1[nH]c1cc(C#N)ccc21 [Comparative example 6, 9-Bromo-8-(4-cyclopropyl-piperazin-1-yl)-6,6-dimethyl-11-oxo-6,11-dihydro-5H-benzo[b]carbazole-3-carbonitrile]			18.2 ± 0.1 µg/mL	3.7 ± 0.5 µg/mL	
